This note sets out measurements from EP0430045B1, “Ascorbic acid tocopheryl phosphate diesters for inhibition of Maillard's reaction” (Senju Pharmaceutical Co., Ltd., priority 1989, dated 1991).

Usually inhibition stands for the change of the read-out against control, counted positive when it falls. Low readings indicate a weak effect, high ones a strong effect.

Structures are written as SMILES.

This assay concerns the target T1, bovine serum albumine (Bos taurus, UniProt P02769).
T1 construct: purchased Sigma A-8022
Nature of the assay: Inhibition of furosine formation (non-enzymatic glycosylation of BSA by glucose, Maillard's reaction), furosine determined by HPLC. Format: biochemical. The following applies: inhibition rate of furosine formation; 5 mM test compound, 20 mg/ml BSA, 50 mM glucose, 50 mM phosphate buffer pH 7.3, 4 weeks at 37 °C. The procedure: Sample solutions as shown below were aseptically prepared from bovine serum albumine (No. A-8022, Sigma)(hereinafter referred to as BSA), 50 mM phosphate buffer solution (PH 7.3) and the test compound and aminoguanidine.
Normal sample; 20 mg/ml BSA in buffer solution Control sample: 20 mg/ml BSA and 50 mM glucose in buffer solution Test sample; 20 mg/ml BSA, 50 mM glucose and 5 mM test compound in buffer solution The sample solutions were kept for 4 weeks at 37 °C, and the amount of furosine which was formed by non-enzymatic glycosylation was determined by HPLC according to the method of Schleicher et al. [J. Clin. Biochem., 19:81-87 (1981).] Thus, the sample solutions after reaction were dialyzed, and aliquots of 1 ml were lyophylized and then hydrolyzed by the addition of 1 ml of 6 N hydrochloric acid followed by heating at 100 °C for 20 hours. After removal of hydrochloric acid by evaporation, 1 ml of water was added to each sample, and the samples were subjected to filtration using a filter with the pore size of 0.45 »m. The filtrate was used as the sample for HPLC. […] The absorbance peak whose ratio of peak area at […] was 3.9/1 was regarded as the peak corresponding to furosine.
Upon the area of the peak of furosine of each sample, the inhibition rate of furosine formation by the test compound was calculated as follows. […]

T1 sequence (P02769 25-607): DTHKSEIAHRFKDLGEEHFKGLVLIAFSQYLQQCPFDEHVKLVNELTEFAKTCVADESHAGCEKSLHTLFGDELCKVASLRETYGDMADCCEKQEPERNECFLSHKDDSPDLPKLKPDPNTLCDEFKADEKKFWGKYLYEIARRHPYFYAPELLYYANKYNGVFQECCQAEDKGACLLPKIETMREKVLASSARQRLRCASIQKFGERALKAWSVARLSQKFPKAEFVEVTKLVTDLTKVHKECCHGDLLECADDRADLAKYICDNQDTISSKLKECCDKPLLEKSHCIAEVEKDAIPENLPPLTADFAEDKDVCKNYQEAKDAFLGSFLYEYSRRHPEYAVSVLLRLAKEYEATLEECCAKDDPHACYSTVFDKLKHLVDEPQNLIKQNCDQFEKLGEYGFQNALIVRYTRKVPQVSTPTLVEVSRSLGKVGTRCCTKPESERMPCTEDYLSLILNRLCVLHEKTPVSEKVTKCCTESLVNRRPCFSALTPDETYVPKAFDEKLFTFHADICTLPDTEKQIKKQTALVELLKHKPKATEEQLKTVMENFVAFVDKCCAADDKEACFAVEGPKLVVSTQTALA

`N=C(N)NN` [Aminoguanidine] displayed an inhibition at 5000 µM of 7.5%.
